“Also recorded” adds a separate entry of the source. Where two headings read alike, the source gives them in different places.
Tests used:
[1] = system: HDAC activity from HELA nuclear extract; assay: Fluorimetric HDAC assay, HeLa nuclear extract; assay type: biochemical, human; conditions: read-out: IC50 (better HDAC inhibitor among 9 tested compounds)
Procedure: (§1) HDAC inhibitory activity was determined by a fluorimetric HDAC assay kit (Active-motif, Belgium), according to manufacturer's instructions. […] Fluorogenic substrate (10 μL) was added, reaction was allowed to proceed for 30 min at room temperature, then stopped by the addition of a developer containing Tichostatin A.

[2] = system: T1, HDAC activity from HELA nuclear extract; assay: Fluorimetric HDAC assay, HeLa nuclear extract; assay type: biochemical, human
T1 construct: HELA Nuclear extracts IC50; other: HeLa nuclear extract, fluorimetric HDAC kit; […]
Procedure: as §1

[3] = system: Leishmania infantum luciferase expressing strain (MHOM/MA/ITMAP269); assay: microbe, parasite or virus in culture; assay type: cell-based
From the text: THP-1 is derived from the peripheral blood ofa human with acute monocytic leukemia.

[4] = system: HFF cells; assay: MTT cytotoxicity on HFF host cells; assay type: cell-based; conditions: for HFF LD50: human
Procedure: (§2) Antiparasitic activity of a compound is represented by ICo50, which is calculated with Prism software (Prism4 for MacOSX Version 5.0b, December 2008). The cytoxicity of a compound against the host cells of L. infantum and T. gondii, such as THP-1 or HFF cells, was determined with a MTT assay, according to previously described protocol (Sereno et al., Antimicrob Agents Chemother. 2001, 45(4):1168-73). THP-1 is derived from the peripheral blood ofa human with acute monocytic leukemia.

[5] = system: THP-1 cells; assay: MTT cytotoxicity on THP-1 host cells; assay type: cell-based; conditions: for THP-1 LD50: human
Procedure: as §2

[6] = system: T. gondii (GFP expressing parasites) in HFF; assay: T. gondii proliferation in human foreskin fibroblasts; assay type: cell-based, Toxoplasma gondii; conditions: for IC50: 24 h
Procedure: To assess the drug activity on toxoplasma proliferation, human foreskin fibroblasts (HFF) were infected with GFP expressing parasites for 30 mns (Striepen et al., Mol Biochem Parasitol. 1998, 92(2):325-38). Cells were then washed and drugs added at various concentrations ranging from 0.1 to 10 uM. After 24 h, cells were washed and fixed (PBS-formaldehyde 2%) and nucleus stained with Hoechst 33258 (2 μg/ml). The number of infected cells i.e cells harbouring a parasitophorous vacuole and the number of parasites per vacuole were determined using an Olympus ScanR microscope (Olympus).
as §2

[7] = system: T2, HDAC activity from HELA nuclear extract; assay: Fluorimetric HDAC assay, HeLa nuclear extract; assay type: biochemical, human; conditions: 600 nM; HELA nuclear extract and HDAC-recombinant proteins
T2 construct: other: 600 nM; HELA nuclear extract and HDAC-recombinant proteins
Procedure: as §1

[8] = molecular target: recombinant HDAC1 (Homo sapiens, UniProt Q13547); assay: Recombinant HDAC1 inhibition; assay type: biochemical
Procedure: FIG. 2 illustrates the capacity of the different compounds of 600 nM to inhibit HDAC activity from HELA nuclear extract and from HDAC-recombinant proteins (HDAC 1, HDAC 3, HDAC 6, HDAC 8).
HDAC inhibitory activity was determined by a fluorimetric HDAC assay kit (Active-motif, Belgium), according to manufacturer's instructions. Briefly, 30 μL of HeLa nuclear extract were mixed with 5 μL of 10× compound to be tested and 10 μL of assay buffer. Fluorogenic substrate (10 μL) was added, reaction was allowed to proceed for 30 min at room temperature, then stopped by the addition of a developer containing Tichostatin A. Fluorescence was monitored after 30 min at excitation and emission wavelengths of 360 and 460 nm, respectively. […].

[9] = molecular target: recombinant HDAC3 (Homo sapiens, UniProt O15379); assay: Recombinant HDAC3 inhibition; assay type: biochemical
[10] = molecular target: T3, recombinant HDAC6 (Homo sapiens, UniProt Q9UBN7); assay: Recombinant HDAC6 inhibition; assay type: biochemical
T3 sequence (Q9UBN7 1-1215): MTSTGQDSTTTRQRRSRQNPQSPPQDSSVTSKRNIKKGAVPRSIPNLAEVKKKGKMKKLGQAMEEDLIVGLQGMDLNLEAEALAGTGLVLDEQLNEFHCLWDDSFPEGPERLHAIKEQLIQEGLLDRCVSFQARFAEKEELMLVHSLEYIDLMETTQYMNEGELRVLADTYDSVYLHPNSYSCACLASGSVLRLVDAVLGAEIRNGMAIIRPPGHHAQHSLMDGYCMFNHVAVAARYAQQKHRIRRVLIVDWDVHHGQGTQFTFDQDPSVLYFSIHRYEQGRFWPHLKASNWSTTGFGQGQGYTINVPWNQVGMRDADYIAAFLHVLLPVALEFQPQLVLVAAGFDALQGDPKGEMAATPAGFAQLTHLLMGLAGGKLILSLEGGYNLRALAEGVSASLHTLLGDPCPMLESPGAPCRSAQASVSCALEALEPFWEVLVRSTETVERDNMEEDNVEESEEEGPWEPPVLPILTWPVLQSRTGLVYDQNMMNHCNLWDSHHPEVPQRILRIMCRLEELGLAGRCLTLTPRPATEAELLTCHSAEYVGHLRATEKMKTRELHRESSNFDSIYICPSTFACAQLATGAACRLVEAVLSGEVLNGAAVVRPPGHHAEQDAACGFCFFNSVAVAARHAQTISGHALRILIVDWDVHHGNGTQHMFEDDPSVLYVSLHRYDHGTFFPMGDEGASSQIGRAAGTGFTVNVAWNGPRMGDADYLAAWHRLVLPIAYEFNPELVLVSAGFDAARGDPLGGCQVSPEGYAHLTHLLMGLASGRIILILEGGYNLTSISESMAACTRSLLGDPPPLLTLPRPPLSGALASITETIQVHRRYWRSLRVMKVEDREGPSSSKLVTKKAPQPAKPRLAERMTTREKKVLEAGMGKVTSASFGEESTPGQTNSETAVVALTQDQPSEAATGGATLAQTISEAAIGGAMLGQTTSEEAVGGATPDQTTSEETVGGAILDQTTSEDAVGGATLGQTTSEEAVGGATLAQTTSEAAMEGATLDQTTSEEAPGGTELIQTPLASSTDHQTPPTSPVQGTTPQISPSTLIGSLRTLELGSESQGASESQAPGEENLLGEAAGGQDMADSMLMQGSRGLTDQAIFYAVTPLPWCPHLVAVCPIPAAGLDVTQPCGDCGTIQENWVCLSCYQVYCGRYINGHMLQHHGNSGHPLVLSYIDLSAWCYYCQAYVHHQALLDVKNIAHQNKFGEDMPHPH

[11] = molecular target: T4, recombinant HDAC 8 (Homo sapiens, UniProt Q9BY41); assay: Recombinant HDAC8 inhibition; assay type: biochemical
T4 sequence (Q9BY41 1-377): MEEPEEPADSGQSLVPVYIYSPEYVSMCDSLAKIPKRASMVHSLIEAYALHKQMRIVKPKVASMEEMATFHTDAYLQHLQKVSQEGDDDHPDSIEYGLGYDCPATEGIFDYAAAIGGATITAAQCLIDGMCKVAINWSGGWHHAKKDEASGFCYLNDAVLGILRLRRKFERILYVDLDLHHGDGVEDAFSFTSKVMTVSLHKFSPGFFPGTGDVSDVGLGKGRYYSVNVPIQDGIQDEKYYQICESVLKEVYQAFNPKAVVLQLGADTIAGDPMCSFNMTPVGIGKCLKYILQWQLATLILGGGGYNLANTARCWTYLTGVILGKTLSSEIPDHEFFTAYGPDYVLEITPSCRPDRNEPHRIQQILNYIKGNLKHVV

[12] = system: deacetylase activity in total protein extracts of T. gondii; assay: Deacetylase activity in total protein extracts of T. gondii; assay type: biochemical; conditions: 125 nM
[13] = system: type II Prugniaud parasites; assay: Type II Prugniaud Toxoplasma proliferation in HFF; assay type: cell-based, Toxoplasma gondii; conditions: 0.025 to 0.8 uM, 24 h
Procedure: To compare the activity of compounds according to the invention to that of prior art on toxoplasma proliferation, human foreskin fibroblasts (HFF) were plated in 96-wells plate (10 000 cells per well). Twenty-four hours later, cells were infected with 40 000 parasites, either RH-YFP type I or type II Prugniaud parasites or tachyzoites (kindly provided by B. Striepen, Athens) for one hour. Cells were then washed and drugs (compound D16 of formula
(FIG. 4 and FIG. 5) or compound according to the invention (363) (FIG. 6) added at various concentrations ranging from 0.025 to 0.8 uM. After 24 h, cells were washed and fixed (PBS-formaldehyde 2%) and nucleus stained with Hoechst 33258 (2 μg/ml). The number of infected cells ie. cells harbouring a parasitophorous vacuole and the number of parasites per vacuole was determined using an Olympus ScanR microscope (Olympus).

[14] = system: Babesia; assay: Babesia proliferation; assay type: cell-based
[15] = HeLa nuclear extract, fluorimetric HDAC kit, read-out: HELA Nuclear extracts IC50
[16] = Toxoplasma gondii, Fibroblast, HFF infected, read-out: T. gondi IC50

recombinant HDAC3, sequence (O15379 whole entry): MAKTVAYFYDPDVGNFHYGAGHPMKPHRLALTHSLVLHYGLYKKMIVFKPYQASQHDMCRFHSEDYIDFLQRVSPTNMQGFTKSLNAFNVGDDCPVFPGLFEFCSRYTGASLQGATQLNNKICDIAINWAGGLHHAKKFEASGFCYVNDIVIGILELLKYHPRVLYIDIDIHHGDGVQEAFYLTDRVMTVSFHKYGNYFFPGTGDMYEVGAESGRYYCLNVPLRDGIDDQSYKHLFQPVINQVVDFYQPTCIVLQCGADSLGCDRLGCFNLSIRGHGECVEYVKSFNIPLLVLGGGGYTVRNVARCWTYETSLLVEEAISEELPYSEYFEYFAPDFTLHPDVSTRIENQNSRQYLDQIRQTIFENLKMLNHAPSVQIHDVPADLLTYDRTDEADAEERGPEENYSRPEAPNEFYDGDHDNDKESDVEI
recombinant HDAC3, sequence (Q9Y618 395-489 partner limits assumed): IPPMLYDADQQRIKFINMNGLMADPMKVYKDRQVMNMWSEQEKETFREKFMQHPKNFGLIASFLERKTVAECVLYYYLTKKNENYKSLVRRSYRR
recombinant HDAC1, sequence (Q13547 whole entry): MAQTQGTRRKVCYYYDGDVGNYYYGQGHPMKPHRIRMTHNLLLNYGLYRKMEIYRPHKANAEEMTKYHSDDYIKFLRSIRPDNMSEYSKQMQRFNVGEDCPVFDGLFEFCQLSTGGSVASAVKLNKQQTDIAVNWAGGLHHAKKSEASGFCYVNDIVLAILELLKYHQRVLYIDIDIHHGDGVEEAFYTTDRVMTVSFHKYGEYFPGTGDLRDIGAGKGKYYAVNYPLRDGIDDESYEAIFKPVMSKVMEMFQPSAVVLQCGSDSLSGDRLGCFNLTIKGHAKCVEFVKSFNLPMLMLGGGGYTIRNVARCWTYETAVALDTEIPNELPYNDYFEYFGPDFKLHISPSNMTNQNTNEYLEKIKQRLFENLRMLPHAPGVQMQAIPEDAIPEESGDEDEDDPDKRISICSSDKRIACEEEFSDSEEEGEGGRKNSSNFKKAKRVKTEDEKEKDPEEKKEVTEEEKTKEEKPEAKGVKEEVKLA

| SMILES | IC50 [1] [µM] | IC50 [2, 15] [µM] | IS Selectivity index LD50 (HFF)/IC50 T. gondii [4] | HFF LD50 [4] [µM] | IS Selectivity index LD50 (THP-1)/IC50 T. gondii [5] | THP-1 LD50 [5] | IC50 [6, 16] [µM] | also measured |
| --- | --- | --- | --- | --- | --- | --- | --- | --- |
| Cc1nc(-c2ccc(C(=O)NCc3ccc(C(=O)NO)cc3)cc2)cs1 [Compound 360] | 2.2 | 0.399 | 4.5 | 22.6 ± 9.5 | 0.4 | 2.2 ± 0.5 µM | – | IC50 ([3]; Leishmania infantum, antiparasitic activity, read-out: L. infantum IC50): > 60 µM |
| O=C(NO)c1ccc(CNC(=O)c2cccc(F)c2)cc1 [Compound 345] | 1.7 | 0.866 | 11.6 | 58.3 ± 1.2 | 0.3 | 1.7. +/− 0.5 μM | < 10 | anti-leishmanial activity, in words [3]: anti-leishmanial; anti-toxoplasma activity, in words [6]: anti-toxoplasma activity; IC50 ([6]; read-out: T. gondi IC50, HFF infected): 5 µM |
| O=C(NO)c1ccc(NS(=O)(=O)c2cccc(F)c2)cc1 [Compound 351] | – | 0.881 | 2.3 | 116.5 ± 35 | 1.53 | – | – | IC50 ([6]; Toxoplasma gondii, Fibroblast, read-out: T. gondi IC50, HFF infected, 24 h): 50 µM |
| COc1cccc(CC(=O)Nc2ccc(C(=O)NO)cc2)c1 [Compound 363] | 3.6 | 0.085 | 300 | 105 ± 10.5 | 10.3 | 3.6 ± 0.5 µM | – | inhibition of human HDAC activity (FIG. 2), in words [7]: most potent inhibitor; IC50 [8]: 0.257 µM; IC50 [9]: 0.16 µM; IC50 [10]: 0.045 µM; IC50 [11]: 0.863 µM; inhibitory effect on deacetylase activity of T. gondii extracts, in words [12]: strong inhibitory effect; inhibition of T. gondii deacetylase activity ([12]; total protein extracts): 44%; inhibitory activity on type II Prugniaud parasites proliferation, in words [13]: potent inhibitory effect; also recorded: potent inhibitory activity; IC50 [14]: ~1 µM |
| O=C(NO)c1ccc(NC(=O)c2cccc(F)c2)cc1 [Compound 349] | – | 0.633 | – | >400 | – | 264 ± 8.0 µM | > 50 | – |
| O=C(NO)c1ccc(CNS(=O)(=O)c2cccc(F)c2)cc1 [Compound 350] | – | 8.61 | 7.5 | 300.0 ± 50.0 | 10 | >400 µM | 40 | IC50 ([2]; text summary of Table 1, less active compounds, read-out: HDAC inhibitory activity against HeLa cell nuclear extract): ~1 µM |

Reference: US20190040004A1, “NEW COMPOUNDS FOR THE TREATMENT AND/OR PREVENTION OF PARASITIC DISEASES AND METHOD OF PRODUCTION OF THEREOF” (INSTITUT DE RECHERCHE POUR LE DEVELOPPEMENT (I.R.D.), priority 2013, published 2019)
